{"source": "patent US20250242031A1", "about": "“POLYMER SALTS FOR IMPROVED DRUG DELIVERY FROM AMORPHOUS SOLID DISPERSIONS” (Purdue Research Foundation, priority 2022, published 2025)", "experiment": "Drug amorphous solubility", "type": "physicochemical", "details": "aqueous buffer; miconazole, dissolution medium pH 6.8"}
{"smiles": "Clc1ccc(COC(Cn2ccnc2)c2ccc(Cl)cc2Cl)c(Cl)c1", "note": "(stereo not shown) [miconazole]", "values": [{"measurement": "solubility", "result": "~5", "unit": "µg/mL"}]}
